From PubChem BioAssay (NCI) come the findings set out here.

The structures appear in SMILES notation.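 All cell lines were grown in 96-well plates and treated with compound for 48 hours. Here, GI50 denotes the concentration required for 50% inhibition of growth. TGI: total growth inhibition.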 Where only a bound is given, the exact number is not on record here.

Some test systems named below: NCI/ADR-RES ovarian; KM12 colon; SK-MEL-5 melanoma; NCI-H460 lung; SNB-19 CNS; HCT-116 colon; RPMI-8226 leukemia; UACC-62 melanoma; HOP-92 NSCLC; MDA-N.
Common to all, as to experiment: inhibition of tumour cell growth, NCI panel, 48 h

As for `FC1C2=C(SC1(F)F)C1CCC2C1` (stereo unspecified), the TGI with NCI/ADR-RES ovarian, with KM12 colon, with SK-MEL-5 melanoma, in the assay on NCI-H460 lung, with SNB-19 CNS and with HCT-116 colon was above 100 µM each time. Also, the TGI in the assay on RPMI-8226 leukemia, in the assay with UACC-62 melanoma and in the assay with HOP-92 NSCLC was above 100 µM each time.

With `O=C(Nc1ccc(-n2ccc3c(NC(=O)c4ccccc4)ncnc32)cc1)Nc1cccc(Cl)c1Cl`, the GI50 with NCI/ADR-RES ovarian was 1.58 µM; in the assay on KM12 colon, 1.15 µM; with SK-MEL-5 melanoma it was 1.35 µM; with SNB-19 CNS, 1.44 µM; in the assay on HCT-116 colon, 0.673 µM; with RPMI-8226 leukemia, 0.646 µM. The GI50 in the assay with UACC-62 melanoma is 1.02 µM; in the assay on HOP-92 NSCLC, 0.847 µM. The TGI was 7.29 µM with NCI/ADR-RES ovarian; 6.57 µM in the assay with KM12 colon; 9.99 µM in the assay on SK-MEL-5 melanoma; 5.84 µM in the assay on SNB-19 CNS; 2.38 µM in the assay on HCT-116 colon; 2.76 µM with RPMI-8226 leukemia. In addition, the TGI is 3.29 µM with UACC-62 melanoma and 2.48 µM with HOP-92 NSCLC.

With `O=C1CCCCCCCCCCC1CN1CCCCC1` (stereo unspecified), the TGI in the assay on KM12 colon is above 100 µM; in the assay with SK-MEL-5 melanoma, 28.3 µM; in the assay on NCI-H460 lung it was above 100 µM; in the assay with SNB-19 CNS, above 100 µM; in the assay with HCT-116 colon, above 100 µM; in the assay with RPMI-8226 leukemia it was above 100 µM. In the assay with UACC-62 melanoma, the TGI was above 100 µM.

Turning to `CC(=O)OC[C@@H](OC(C)=O)[C@H](OC(C)=O)[C@@H]1OC(C)(C)O[C@@H]1C1SCCCS1`, the TGI in the assay on KM12 colon, in the assay on SK-MEL-5 melanoma, with NCI-H460 lung, with MDA-N, with SNB-19 CNS and in the assay with HCT-116 colon was above 100 µM each time. Besides, the TGI in the assay with RPMI-8226 leukemia and with UACC-62 melanoma was above 100 µM throughout.

On to `COC(=O)c1cnc(Cl)cn1`, for which the TGI in the assay on NCI/ADR-RES ovarian, in the assay with KM12 colon, in the assay with SK-MEL-5 melanoma, in the assay with NCI-H460 lung, in the assay with SNB-19 CNS and in the assay with HCT-116 colon was above 100 µM each time. Besides, the results for the TGI in the assay with RPMI-8226 leukemia, in the assay with UACC-62 melanoma and in the assay on HOP-92 NSCLC were 59 µM, above 100 µM and above 100 µM, respectively.

For the compound `CC(C)(C)C(=O)OC12/C(=N/O)CCCCCC1c1ccccc12` (stereo unspecified), the TGI was 30.1 µM with KM12 colon; 31.7 µM in the assay on SK-MEL-5 melanoma; 32.3 µM in the assay on NCI-H460 lung; 31.1 µM in the assay with SNB-19 CNS; 27.5 µM in the assay on HCT-116 colon; 30.9 µM in the assay with RPMI-8226 leukemia. In the assay on UACC-62 melanoma, this compound came in with a TGI of 31.5 µM.

For `Nc1ccc(C(=O)c2cn(CCN3CCOCC3)c3ccccc23)c2ccccc12`, the TGI is 65.3 µM with NCI/ADR-RES ovarian; above 100 µM with KM12 colon; 51.5 µM in the assay on SK-MEL-5 melanoma; above 100 µM with NCI-H460 lung; above 100 µM in the assay with MDA-N; above 100 µM in the assay with SNB-19 CNS. Also, the TGI with HCT-116 colon, in the assay on RPMI-8226 leukemia and in the assay on UACC-62 melanoma was above 100 µM each time.

On to `N#Cc1c(-c2ccccc2)c(N=Nc2ccc(Cl)cc2)c(=O)n2c1[nH]c1ccccc12`, for which the TGI with NCI/ADR-RES ovarian, in the assay with KM12 colon, with SK-MEL-5 melanoma, in the assay on NCI-H460 lung, with MDA-N and with SNB-19 CNS was above 100 µM throughout. For the same compound, the TGI in the assay with HCT-116 colon and in the assay with RPMI-8226 leukemia was above 100 µM each time.

On to `C=C(OC1C(C)=C2C(C1OC(=O)CCCCCCC)C(C)(OC(C)=O)CC(OC(=O)CCC)C1(O)C2OC(=O)C1(C)O)/C(C)=C/C` (stereo unspecified), for which the TGI in the assay on NCI/ADR-RES ovarian amounted to 6.51 µM; in the assay with KM12 colon, 3.63 µM; in the assay on NCI-H460 lung it was 0.046 µM; with SNB-19 CNS, 3.16 µM; in the assay on HCT-116 colon, 0.000151 µM; with RPMI-8226 leukemia, 0.0256 µM. Moreover, the TGI is 0.0273 µM in the assay on UACC-62 melanoma and 3.09 µM in the assay with HOP-92 NSCLC. For the same compound, the GI50 in the assay with KM12 colon, in the assay with SK-MEL-5 melanoma, with NCI-H460 lung, in the assay with HCT-116 colon and with RPMI-8226 leukemia was below 0.0001 µM in each case.

With `Cc1ccc(N(CC(=O)Nc2ccc(S(=O)(=O)N3CCC(N4CCCC4)CC3)cc2)S(=O)(=O)c2ccc(Cl)cc2)cc1`, the GI50 is 1.93 µM in the assay on NCI/ADR-RES ovarian; 1.96 µM in the assay with KM12 colon; 1.73 µM with SK-MEL-5 melanoma; 1.75 µM in the assay with NCI-H460 lung; 2.08 µM with RPMI-8226 leukemia; 1.19 µM with HOP-92 NSCLC. The TGI with NCI/ADR-RES ovarian turned out to be 4.05 µM; with KM12 colon it was 3.9 µM; with SK-MEL-5 melanoma, 3.14 µM; in the assay with NCI-H460 lung it was 3.43 µM; in the assay with RPMI-8226 leukemia it was 5.06 µM; in the assay on HOP-92 NSCLC, 2.71 µM.

Turning to `CCOC(=O)CC1(c2cccc3ccccc23)OC(=O)c2ccccc21` (stereo unspecified), the TGI was above 100 µM with KM12 colon; 63.8 µM in the assay with SK-MEL-5 melanoma; above 100 µM in the assay on NCI-H460 lung; above 100 µM in the assay on SNB-19 CNS; 64.2 µM in the assay on RPMI-8226 leukemia; above 100 µM with UACC-62 melanoma.

On to `Nc1nc(N)c2cc(NCc3ccc(Cl)c(Cl)c3)ccc2n1`, for which the GI50 in the assay with NCI/ADR-RES ovarian is 2.88 µM; in the assay with KM12 colon, 1.29 µM; in the assay with SK-MEL-5 melanoma, 1.5 µM; in the assay on SNB-19 CNS, 1.46 µM; in the assay on HCT-116 colon it was 0.391 µM; with UACC-62 melanoma, 1.39 µM. In the assay with HOP-92 NSCLC, the GI50 is 0.348 µM. Also, the TGI turned out to be 16.6 µM in the assay on NCI/ADR-RES ovarian; 2.59 µM in the assay on KM12 colon; 2.83 µM with SK-MEL-5 melanoma; 2.78 µM with SNB-19 CNS; 1.58 µM in the assay with HCT-116 colon; 2.7 µM with UACC-62 melanoma. In the assay on HOP-92 NSCLC, the TGI was determined as 1.75 µM.

Regarding `c1csc(C[N+]23CN4CN(CN(C4)C2)C3)c1`, the TGI was above 100 µM with KM12 colon; 35.8 µM with SK-MEL-5 melanoma; 49.2 µM in the assay on NCI-H460 lung; above 100 µM with SNB-19 CNS; above 100 µM in the assay on HCT-116 colon; 58.7 µM in the assay on RPMI-8226 leukemia. Further, the TGI with UACC-62 melanoma turned out to be 47.5 µM; in the assay with HOP-92 NSCLC it was 44.9 µM.
